“And” between values parts separate entries of the source, which are not always exact repeats. Identical values can stand only once.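 These data come from cells grown in 96-well plates and exposed to compound for 48 hours at five concentrations. Abbreviation: GI50, concentration required for 50% inhibition of growth. TGI: concentration producing complete growth inhibition.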

In PubChem BioAssay (NCI) one finds GI50 and TGI data, which are given here for six compounds.

Holding throughout (assay): NCI-60 cell line screen, 48 h
Assay [1] concerns 786-0 renal.
The test system of assay [2] is MCF7 breast.
The test system of assay [3] is SK-MEL-5 melanoma.
Assay [4] has as its system MDA-MB-231 breast.
Assay [5] concerns HCT-116 colon.
In assay [6] the test system is UACC-62 melanoma.
The subject of assay [7] is MDA-MB-435.
The test system of assay [8] is OVCAR-4 ovarian.
Assay [9] has as its system SN12C renal.
Assay [10] deals with SK-MEL-28 melanoma.

For `O=C1C=Cc2ccccc2/C1=C/c1[nH]c(=O)[nH]c1O`, the GI50 in assay [1] is 5.41 µM; in assay [2], 2.4 µM; in assay [3], 2.84 µM; in assay [4], 13.2 µM; in [5], 4.12 µM; in assay [6], 3.45 µM. Also, the GI50 was 1.76 µM in assay [7], 4.22 µM in assay [8] and 10.1 µM in assay [9]. Further, the TGI in assay [1] is 29.5 µM; in [2], 15.2 µM; in assay [3] it was 13 µM; in assay [4], 84.3 µM; in [5] it was 18.3 µM; in assay [6], more than 100 µM. Also, the TGI was 4.64 µM in [7], 23.4 µM in [8] and more than 100 µM in [9].

With `COC(=O)/C(=C\c1c(C)[nH]c2ccccc12)S(=O)(=O)c1ccccc1`, the GI50 in [1] was 8.23 µM; in [10], 5.78 µM; in assay [2] it was 2.81 µM; in assay [4] it was 2.74 µM; in [5], 3.8 µM; in assay [6], 2.77 µM. The figures for the GI50 in assay [7], in assay [8] and in assay [9] were 2.86 µM, 5.71 µM and 2.55 µM, respectively. In addition, the TGI in assay [1] amounted to 24.1 µM; in [10] it was 18.7 µM; in [2], 12.5 µM; in assay [4], 14.5 µM; in [5] it was 17.3 µM; in [6], 13.3 µM. For the same compound, the TGI in [7] is 13.8 µM; in assay [8] it was more than 100 µM; in assay [9], 10.3 µM.

`CNC(=O)c1cccc(-c2ccc3c(N4CCOC[C@@H]4C)nc(N4CCOC[C@@H]4C)nc3n2)c1`: the GI50 was 0.229 µM and 0.252 µM in assay [1]; 0.041 µM and 0.123 µM and 0.0402 µM in assay [10]; 0.0295 µM and 0.098 µM and 0.0368 µM in assay [2]; 0.109 µM and 0.17 µM and 0.176 µM in assay [3]; 0.181 µM and 0.168 µM and 0.184 µM in [4]; 0.303 µM and 0.451 µM and 0.407 µM in assay [5]. Also, the GI50 is 0.0393 µM and 0.082 µM and 0.0802 µM in assay [6]; 0.0925 µM and 0.204 µM and 0.147 µM in [7]; 0.132 µM and 0.121 µM and 0.129 µM in assay [9]. Moreover, the TGI was more than 32.8 µM in assay [1]; 0.72 µM and 3.01 µM and 0.671 µM in assay [10]; 5.51 µM and > 3.46 µM and 9.7 µM in assay [2]; 0.718 µM and 0.99 µM and 2.87 µM in assay [3]; 34.3 µM and > 10 µM and > 64 µM in [4]; more than 100 µM in assay [5]. The TGI in assay [6] was 0.339 µM and 0.438 µM and 0.452 µM; in assay [7], 1.8 µM and 1.34 µM and 1.27 µM; in assay [9], more than 100 µM.

For the compound `Cc1cc(S(=O)(=O)Nc2nnc(-c3ccccc3)c(-c3ccccc3)n2)c(SCc2ccccc2)cc1Cl`, the GI50 in assay [1] was 14.5 µM; in assay [10], 22.6 µM; in assay [2], 24 µM; in assay [3], 17 µM; in [4], 20.2 µM; in assay [5], 19.8 µM. The results for the GI50 in assay [6], in assay [7] and in assay [8] were 16.1 µM, 21.7 µM and 19.9 µM, respectively. Also, the TGI in assay [1] worked out at 29.8 µM; in [10], 40.7 µM; in [2] it was 54.2 µM; in [3] it was 33.5 µM; in [4], 41.9 µM; in assay [5], 38.9 µM. The TGI was found to be 30.9 µM in [6], 43.3 µM in assay [7] and 37.2 µM in assay [8].

Consider `S=C(N/N=C/c1ccccn1)Nc1ccccn1`, for which the GI50 was 2.58 µM in assay [1]; 2.51 µM in assay [10]; 0.472 µM in assay [2]; 0.874 µM in assay [3]; 0.642 µM in [4]; 0.371 µM in assay [5]. Further, the GI50 in assay [7] is 3.86 µM; in assay [8], 0.477 µM; in assay [9] it was 1.95 µM. Further, the TGI is 36.4 µM in assay [1]; more than 100 µM in [10]; more than 100 µM in assay [2]; 11.3 µM in [3]; more than 100 µM in assay [4]; more than 100 µM in assay [5]. Also, the TGI was more than 100 µM in [7], 62.2 µM in [8] and more than 100 µM in assay [9].

On to `Cc1nc2cccc(NCc3ccc(C(=O)NO)cc3)c2c(=O)n1-c1ccccc1`, for which the GI50 is 1.81 µM in [1]; 1.97 µM in assay [10]; 2.89 µM in [2]; 1.64 µM in [3]; 2.5 µM in [4]; 1.35 µM in assay [5]. Further, the GI50 in [7] is 1.63 µM; in assay [8] it was 2.67 µM; in assay [9] it was 2.14 µM. For the same compound, the TGI in [1] is 3.78 µM; in assay [10] it was 3.92 µM; in [2] it was 38.9 µM; in assay [3], 3.1 µM; in assay [4] it was 6.79 µM; in assay [5], 4.76 µM. Further, the TGI in assay [7] is 3.28 µM; in assay [8], 9.64 µM; in assay [9], 5.38 µM.
